Literature values in patent US7993684B2, “Method of inhibiting alveolar bone resorption and periodontal membrane loss and composition for internal use to be used therein” (Sunstar Inc., priority 2003, dated 2011).

Tests used:
[1] = system: periodontal disease-causing bacteria; conditions: Japanese Unexamined Patent Publication No. 1992-283518
alveolar bone resorption = conditions: Japanese Unexamined Patent Publication No. 1996-133969

**Q.** With O=c1c(-c2ccc(O)cc2)coc2cc(O)cc(O)c12 [genistein] as the compound, how does the “Antibacterial activity against periodontal disease-causing bacteria” value [1] read?
**A.** Its value is “shows antibacterial activity”.

**Q.** Which “Inhibition of alveolar bone resorption related to periodontal disease” value (alveolar bone resorption) does the source give for calcium pantothenate here?
**A.** The value was “inhibit alveolar bone resorption”.
